# Laboratory results: patent US20250255866A1, “USES OF FATTY ACID AMIDE HYDROLASE INHIBITORS IN TREATMENT OF TRAUMA RELATED PSYCHIATRIC DISORDERS” (Neuritek Therapeutics Ltd., priority 2020, published 2025)
# Experiments:
# adults with PTSD = experiment: Exploratory behavioral analyses 1: effect relative to placebo on PTSD symptoms; format: in vivo, human
# Procedure: (a). To evaluate the effect of daily 450 mg of 3-{[5-(2-Fluorophenyl)pyridin-2-yl]oxy}-N-(pyridazin-3-yl)azetidine-1-carboxamide relative to placebo in mitigating PTSD symptoms in adults with PTSD. Patient will be receiving a 450 mg dose of the study agent.
# (b). To evaluate the effect of 450 mg of the study drug relative to placebo in mitigating PTSD symptoms that comprise a contemporary, five-factor phenotypic model of this disorder, as well as secondary “intermediate phenotype” measures of anxiety sensitivity and somatic anxiety.
# FAAH = experiment: Changes in plasma fatty acid amide (FAA) levels in response to the FAAH inhibitor; format: in vivo, human; conditions: 450 mg/day, plasma drug level 200 nm/ml to about 600 ng/ml, predicted maximal change
# Procedure: In other embodiments, upon achieving trough steady state plasma, plasma FAA levels will be minimal. Conversely, at the 450 mg/day dose, changes in plasma FAA levels in response to 3-{[5-(2-Fluorophenyl)pyridin-2-yl]oxy}-N-(pyridazin-3-yl)azetidine-1-carboxamide ranging from 200 nm/ml to about 600 ng/ml are predicted to be maximal; in the order of 3, 4, 8 and 5 ng/mL for AEA, LEA, OEA and PEA, respectively.
structure (smiles),measurement,setting,value
O=C(Nc1cccnn1)N1CC(Oc2ccc(-c3ccccc3F)cn2)C1 [3-{[5-(2-Fluorophenyl)pyridin-2-yl]oxy}-N-(pyridazin-3-yl)azetidine-1-carboxamide],"PTSD symptoms of the five-factor phenotypic model, anxiety sensitivity and somatic anxiety, relative to placebo",adults with PTSD; 450 mg daily dose,most pronounced effect on reducing anxious arousal
same,overall severity of PTSD symptoms relative to placebo,adults with PTSD; daily 450 mg,reduction in overall severity of PTSD symptoms
same,change in plasma FAA level: AEA,FAAH,~3 ng/mL
same,change in plasma FAA level: LEA,FAAH,~4 ng/mL
same,change in plasma FAA level: OEA,FAAH,~8 ng/mL
same,change in plasma FAA level: PEA,FAAH,~5 ng/mL
